The results in this text go back to patent US20220401414A1, “TREATMENT AND PREVENTION OF A NEURODEGENERATIVE DISORDER” (Inflazome Limited, priority 2019, published 2022).

One assay deals with IL-1β. As to the kind of experiment: Study H: IL-1β ELISA in plasma of PFF-Synuclein mice. The format is in vivo, C57BL6 mice. The settings on record: 0.3 mg/ml drinking water, 12 months after PFF-Synuclein injections. From the text: To determine the oral efficacy of the compound of formula (I) in a chronic progressive model of Parkinson's disease (PD), the preformed fibrils (PFF) mouse model, using a prophylactic and therapeutic dosing schedule.
8-week-old C57BL6 male mice (obtained from ARC, Perth, Australia) were housed under a 12-h light cycle in a SPF climate-controlled facility with food and water provided ad libitum for two weeks prior to study initiation. The compound of formula (I) (or water alone for control animals) was administrated to mice in drinking water at 0.3 mg/ml. Animals were separated into the groups described in Table 9, with ten animals initiated in each cohort. […]
Recombinant human a-synuclein was obtained from rPeptide Inc., and in vitro fibril generation was performed with a final concentration of 2 mg/ml in phosphate-buffered saline (PBS) by incubation at 37° C. with agitation in an orbital mixer (400 rpm) for 7 days with daily cycles of sonication used to break down fibrillar aggregates as outlined in previously published reports (see Luk et al., Science, 2012, vol. 338(6109), pp. 949-53; and Zhang et al., Methods Mol. Biol., 2019, vol. 1948, pp. 45-57, which are incorporated in their entirety herein by reference). The generation of fibrillar α-synuclein species was confirmed by transmission electron microscopy and Thioflavin T fluorescence prior to use. […]
For orientation: ELISA stands for enzyme-linked immunosorbent assay.

Assay [1] concerns 6-OHDA mouse model of Parkinson's disease. As to the kind of experiment: Studies C and D: amphetamine-induced ipsilateral rotations in the 6-OHDA mouse model. The format is in vivo, C57BL6 mice. The note with it: day 21 after 6-OHDA (12 μg). How it is done:
To determine the oral efficacy of the compound of formula (I) in the 6-OHDA mouse model of Parkinson's disease.
8-week-old C57BL6 male mice (obtained from ARC, Perth, Australia) were housed under a 12-h light cycle in a SPF climate-controlled facility with food and water provided ad libitum for two weeks prior to study initiation. For treatment with the compound of formula (I), mice were dosed via oral gavage. Ten (10) mice in each group were dosed at 3 or 1 mg/kg, starting the day before (24 hr prior) stereotaxic surgery, and then QD until sacrifice.
6-OHDA (Sigma) was prepared immediately prior to surgeries. A sterile saline (0.9%) solution containing ascorbic acid (0.2%) was used as the vehicle to dissolve 6-OHDA. […] In order to inject a final concentration of 12 μg into the right striatum, a working stock of 6 mg/ml was made injecting a final volume of 2 μl.
Mice were anaesthetized using ketamine (100 mg/kg, i.p.) and xylazine (10 mg/kg i.p.)
anesthesia and were placed into a stereotactic frame with nose and ear bars specially adapted for mice. The lesion was performed using a 5 μl Hamilton syringe to deliver either vehicle or 6-OHDA (12 μg) at the following coordinates relative to bregma: AP: −1.2 mm; ML: −1.7 mm; DV: 3.5 mm into the right dorsal striatum according to the stereotaxic atlas (“The mouse brain in stereotaxic coordinates” by Paxinos and Franklin, 1997). After drilling a 1 mm burr-hole in the skull, a 2 μl volume of solution was infused at the target site at the rate of 0.5 μl per minute. The needle was held in place for at least 5 minutes after injection to minimize retrograde flow along the needle tract. Mice were administered a subcutaneous injection of sterile Ringer's solution to is facilitate recovery and were placed on a heat-pad until complete recovery from anesthesia.
Amphetamine-induced ipsilateral rotations were performed at day 21 post-surgery. Mice were injected with 2 mg/kg of D-amphetamine and placed in circular glass bowls.
After an acclimatization period of five minutes, the net ipsilateral rotations over ten minutes were recorded and counted. Quantitation was performed from recorded videos by an investigator blinded to the treatment groups.
The aim of study D was to compare the neuroprotective efficacy of the compound of formula (I) with MCC95o in the mouse unilateral 6-OHDA model at 3 mg/kg. The amphetamine-induced ipsilateral rotations and striatal dopamine (DA) levels were assessed, using a protocol identical to that used for study C, with ten (10) mice in each group being dosed at 3 mg/kg for each drug, starting the day before (24 hr prior) stereotaxic surgery, and then daily throughout until sacrifice.

Consider `CC(C)n1ccc(S(=O)(=O)NC(=O)Nc2c3c(cc4c2CCC4)CCC3)n1` [compound of formula (I)], for which the “circulating IL-1β in plasma compared with the PFF-Synuclein group” value in the assay on IL-1β (prophylactic treatment) and in the assay on IL-1β (therapeutic treatment) was “significant decrease in circulating IL-1β” throughout. Moreover, the amphetamine-induced ipsilateral rotations entry is recorded as “significant protective effect” in assay [1] (Study C, 3 mg/kg oral gavage QD from 24 hr before surgery) and “fewer ipsilateral rotations compared to MCC950” in assay [1] (Study D, 3 mg/kg oral daily). Besides, the “reduction in amphetamine-induced rotations relative to the 6-OHDA untreated group” value in assay [1] (Study D, 3 mg/kg oral daily) was found to be 75%.
